Measured values published in ChEMBL document CHEMBL3885861, “Open TG-GATES”.

Organism: Rattus norvegicus
Experiment: Open TG-GATES - Regimen: Single
Type: toxicity, organism-based, Sprague-Dawley
Design: regimen Single, gender Male, age 6 weeks
Settings: in vivo, po, 1000 mg/kg, route gavage, dose level High; for APTT / Bas / Eos / Fbg / Hb / Ht / Lym / MCH / MCHC / MCV / Mono / Neu / PT / Plat / RBC / Ret / WBC: tissue Blood; for KIDNEY_L / KIDNEY_R / KIDNEY_TOTAL: tissue Kidney; for LIVER: tissue Liver; for A/G / ALP / ALT / AST / BUN / CRE / Ca / Cl / DBIL / GLC / IP / K / LDH / Na / PL / RALB / TBIL / TC / TG / TP / gamma-GTP: tissue Plasma

## CCOC(=O)CCC(=O)O[C@H]1[C@H](O[C@@H]2[C@@H](C)[C@H](O[C@H]3C[C@@](C)(OC)[C@@H](O)[C@H](C)O3)[C@@H](C)C(=O)O[C@H](CC)[C@@](C)(O)[C@H](O)[C@@H](C)C(=O)[C@H](C)C[C@@]2(C)O)O[C@H](C)C[C@@H]1N(C)C [ERYTHROMYCIN ETHYLSUCCINATE]
3 h
  TERMINAL_BW: 217 g
  APTT: 22.2 s
  Bas: 0%
  Eos: 1%
  Fbg: 305.8 mg/dL
  Hb: 13 g/dL
  Ht: 39.2%
  Lym: 74.6%
  MCH: 20.5 pg
  MCHC: 33.1%
  MCV: 61.8 fL
  Mono: 2.8%
  Neu: 20%
  PT: 15.4 s
  Plat: 131 x10_4/uL
  RBC: 635.4 x10_4/ul
  Ret: 8.2%
  WBC: 77.4 x10_2/uL
  KIDNEY_L: 1 g
  KIDNEY_R: 1 g
  KIDNEY_TOTAL: 1.9 g
  LIVER: 9.6 g
  A/G: 1.2
  ALP: 1535.2 IU/L
  ALT: 46 IU/L
  AST: 76.6 IU/L
  BUN: 11.8 mg/dL
  CRE: 0.1 mg/dL
  Ca: 10.4 mg/dL
  Cl: 102.4 meq/L
  DBIL: 0.014 mg/dL
  GLC: 181.2 mg/dL
  IP: 9.7 mg/dL
  K: 3.7 meq/L
  LDH: 158.4 IU/L
  Na: 138 meq/L
  PL: 143.8 mg/dL
  RALB: 2.9 g/dL
  TBIL: 0.05 mg/dL
  TC: 74.2 mg/dL
  TG: 40 mg/dL
  TP: 5.4 g/dL
  gamma-GTP: 1 IU/L
6 h
  TERMINAL_BW: 219.9 g
  APTT: 23.4 s
  Bas: 0%
  Eos: 1%
  Fbg: 315 mg/dL
  Hb: 13.3 g/dL
  Ht: 40.7%
  Lym: 73.2%
  MCH: 20.6 pg
  MCHC: 32.8%
  MCV: 62.9 fL
  Mono: 3.2%
  Neu: 21%
  PT: 15.7 s
  Plat: 134.9 x10_4/uL
  RBC: 647.6 x10_4/ul
  Ret: 7.9%
  WBC: 93.4 x10_2/uL
  KIDNEY_L: 1 g
  KIDNEY_R: 1.1 g
  KIDNEY_TOTAL: 2.1 g
  LIVER: 9.1 g
  A/G: 1.2
  ALP: 1632.2 IU/L
  ALT: 45.8 IU/L
  AST: 79.8 IU/L
  BUN: 10.2 mg/dL
  CRE: 0.1 mg/dL
  Ca: 10.6 mg/dL
  Cl: 104 meq/L
  DBIL: 0.012 mg/dL
  GLC: 176.8 mg/dL
  IP: 10 mg/dL
  K: 4 meq/L
  LDH: 180 IU/L
  Na: 138.8 meq/L
  PL: 140.4 mg/dL
  RALB: 2.9 g/dL
  TBIL: 0.046 mg/dL
  TC: 68.4 mg/dL
  TG: 43.4 mg/dL
  TP: 5.4 g/dL
  gamma-GTP: 1.4 IU/L
9 h
  TERMINAL_BW: 213.4 g
  APTT: 23.1 s
  Bas: 0%
  Eos: 1%
  Fbg: 304.8 mg/dL
  Hb: 13.5 g/dL
  Ht: 40.8%
  Lym: 76.2%
  MCH: 20.8 pg
  MCHC: 33.1%
  MCV: 62.8 fL
  Mono: 2.6%
  Neu: 19.8%
  PT: 15.4 s
  Plat: 121.3 x10_4/uL
  RBC: 650.4 x10_4/ul
  Ret: 7.2%
  WBC: 67.2 x10_2/uL
  KIDNEY_L: 1 g
  KIDNEY_R: 1 g
  KIDNEY_TOTAL: 2 g
  LIVER: 8.5 g
  A/G: 1.2
  ALP: 1688.2 IU/L
  ALT: 40.4 IU/L
  AST: 73 IU/L
  BUN: 9 mg/dL
  CRE: 0.1 mg/dL
  Ca: 10.5 mg/dL
  Cl: 105.8 meq/L
  DBIL: 0 mg/dL
  GLC: 173.8 mg/dL
  IP: 9.7 mg/dL
  K: 4.2 meq/L
  LDH: 169.2 IU/L
  Na: 139.2 meq/L
  PL: 144.4 mg/dL
  RALB: 3 g/dL
  TBIL: 0.036 mg/dL
  TC: 69.2 mg/dL
  TG: 54.4 mg/dL
  TP: 5.5 g/dL
  gamma-GTP: 1 IU/L
24 h
  TERMINAL_BW: 227.7 g
  APTT: 20.2 s
  Bas: 0%
  Eos: 1%
  Fbg: 337.4 mg/dL
  Hb: 13.9 g/dL
  Ht: 41.8%
  Lym: 85.4%
  MCH: 20.9 pg
  MCHC: 33.2%
  MCV: 62.8 fL
  Mono: 3%
  Neu: 8.8%
  PT: 16.3 s
  Plat: 125.6 x10_4/uL
  RBC: 666 x10_4/ul
  Ret: 7.1%
  WBC: 93.9 x10_2/uL
  KIDNEY_L: 1 g
  KIDNEY_R: 1 g
  KIDNEY_TOTAL: 2 g
  LIVER: 9.4 g
  A/G: 1.2
  ALP: 1448.8 IU/L
  ALT: 34 IU/L
  AST: 66.4 IU/L
  BUN: 16.8 mg/dL
  CRE: 0.1 mg/dL
  Ca: 10.6 mg/dL
  Cl: 107.6 meq/L
  DBIL: 0 mg/dL
  GLC: 197.8 mg/dL
  IP: 9 mg/dL
  K: 4.3 meq/L
  LDH: 209.6 IU/L
  Na: 142.8 meq/L
  PL: 139.6 mg/dL
  RALB: 3 g/dL
  TBIL: 0.024 mg/dL
  TC: 86.6 mg/dL
  TG: 53.2 mg/dL
  TP: 5.6 g/dL
  gamma-GTP: 1.2 IU/L
